This assay relates to P388 leukemia ip, CD2F1 mice, survival T/C. Put plainly: NCI In Vivo Anticancer Drug Screen. Data for tumor model P388 Leukemia (intraperitoneal) in CD2F1 (CDF1) mice. The note with it: endpoint: median survival time, higher = longer survival. The method, boiled down:
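Mice carrying the transplanted tumor received test compound or vehicle. Survival was recorded in each group, and the value is the treated-group measurement divided by that of the vehicle-treated control group.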

Setting [1] is: dose: 25.0 mg/kg/injection, schedule: Q04DX003 (ip), vehicle: saline with Tween-80.
Setting [2] is: dose: 50.0 mg/kg/injection, schedule: Q04DX003 (ip), vehicle: saline with Tween-80.
Setting [3] is: dose: 100.0 mg/kg/injection, schedule: Q04DX003 (ip), vehicle: saline with Tween-80.
[4] abbreviates: dose: 200.0 mg/kg/injection, schedule: Q04DX003 (ip), vehicle: saline with Tween-80.
Setting [5] is: dose: 50.0 mg/kg/injection, schedule: Q01DX005 (ip), vehicle: Klucel (hydroxypropylcellulose) (HPC).
Where [6] appears, read: dose: 100.0 mg/kg/injection, schedule: Q01DX005 (ip), vehicle: Klucel (hydroxypropylcellulose) (HPC).
The mark [7] stands for this setting: dose: 60.0 mg/kg/injection, schedule: Q01DX005 (ip), vehicle: Klucel (hydroxypropylcellulose) (HPC).
Where [8] appears, read: dose: 120.0 mg/kg/injection, schedule: Q01DX005 (ip), vehicle: Klucel (hydroxypropylcellulose) (HPC).
[9] abbreviates: dose: 240.0 mg/kg/injection, schedule: Q01DX005 (ip), vehicle: Klucel (hydroxypropylcellulose) (HPC).
[10] abbreviates: dose: 400.0 mg/kg/injection, schedule: Q04DX003 (ip), vehicle: saline with Tween-80.
The mark [11] stands for this setting: dose: 60.0 mg/kg/injection, schedule: Q01DX005 (ip), vehicle: saline with Tween-80.
The mark [12] stands for this setting: dose: 120.0 mg/kg/injection, schedule: Q01DX005 (ip), vehicle: saline with Tween-80.
The mark [13] stands for this setting: dose: 50.0 mg/kg/injection, schedule: Q01DX009 (ip), vehicle: saline with Tween-80.
[14] abbreviates: dose: 200.0 mg/kg/injection, schedule: Q01DX009 (ip), vehicle: saline with Tween-80.

Where “and” joins values, the source holds several entries; their conditions need not be identical. Equal values may be shown once. Inconclusive results and toxic doses are left out.

Regarding `O=C(O)C(Cc1ccccc1)NP(=S)(c1ccccc1)c1ccccc1` (centres undefined), the T/C (dose: 50.0 mg/kg/injection, schedule: Q01DX009 (ip), vehicle: Klucel (hydroxypropylcellulose) (HPC)) was 110 % of control; the T/C (dose: 100.0 mg/kg/injection, schedule: Q01DX009 (ip), vehicle: Klucel (hydroxypropylcellulose) (HPC)) was 97 % of control; the T/C (dose: 200.0 mg/kg/injection, schedule: Q01DX009 (ip), vehicle: Klucel (hydroxypropylcellulose) (HPC)) is 106 % of control.

For `C/C(=N\N=C(\[Se])N1CC(C)OC(C)C1)c1ccccn1` (centres undefined), the T/C by setting is: (dose: 10.0 mg/kg/injection, schedule: Q04DX003 (ip), vehicle: saline with Tween-80) 100 % of control; under setting [1], 106 % of control; under setting [2], 107 % of control; under setting [3], 109 % of control; under setting [4], 121 % of control.

In the case of `C/C(=C1\N=C(c2ccccc2)OC1=O)c1ccccc1`, the T/C reads like this: (dose: 50.0 mg/kg/injection, schedule: Q01DX005 (ip), vehicle: saline with Tween-80) 96 % of control; (dose: 100.0 mg/kg/injection, schedule: Q01DX005 (ip), vehicle: saline with Tween-80) 92 % of control; (dose: 200.0 mg/kg/injection, schedule: Q01DX005 (ip), vehicle: saline with Tween-80) 95 % of control.

For `Cc1cc(C(C(N)=O)c2ccccc2)ccc1N(CCCl)CCCl` (centres undefined), the T/C is 168 % of control (dose: 9.37 mg/kg/injection, schedule: Q01DX009 (ip), vehicle: other); 195 % of control (dose: 18.75 mg/kg/injection, schedule: Q01DX009 (ip), vehicle: other); 184 % of control (dose: 25.0 mg/kg/injection, schedule: Q04DX003 (ip), vehicle: Klucel (hydroxypropylcellulose) (HPC)); 176 % of control (dose: 50.0 mg/kg/injection, schedule: Q04DX003 (ip), vehicle: Klucel (hydroxypropylcellulose) (HPC)); 97 % of control (dose: 100.0 mg/kg/injection, schedule: Q04DX003 (ip), vehicle: Klucel (hydroxypropylcellulose) (HPC)).

For the compound `O=C(O)CNC(=S)C(=S)NCC(=O)O`, the T/C runs as follows: under setting [5], 101 % of control; under setting [6], 97 % of control; (dose: 200.0 mg/kg/injection, schedule: Q01DX005 (ip), vehicle: Klucel (hydroxypropylcellulose) (HPC)) 90 % of control.

Take `CCOC(=O)C(Nc1cc([N+](=O)[O-])ccc1C(=O)N1CCCCC1)(C(=O)OCC)N1CCCCC1`: the T/C was 96 % of control under setting [7], 92 % of control under setting [8] and 89 % of control under setting [9].

As for `COc1ccc(-c2sc(/N=C/c3cc(OC)c(OC)c(OC)c3)c(C#N)c2C)cc1OC`, the T/C under setting [2] was 101 % of control, the T/C under setting [3] was 99 % of control, the T/C under setting [4] was 100 % of control and the T/C under setting [10] is 90 % of control.

On to `CC1S/C(=N\N=C\c2ccc(Cl)cc2)N=C1c1c(O)c2ccccc2oc1=O` (centres undefined), for which the T/C is 93 % of control under setting [7]; 91 % of control (dose: 60.0 mg/kg/injection, schedule: Q02DX002 (ip), vehicle: Klucel (hydroxypropylcellulose) (HPC)); 91 % of control under setting [8]; 94 % of control (dose: 120.0 mg/kg/injection, schedule: Q02DX002 (ip), vehicle: Klucel (hydroxypropylcellulose) (HPC)); 86 % of control under setting [9]; 94 % of control (dose: 240.0 mg/kg/injection, schedule: Q02DX002 (ip), vehicle: Klucel (hydroxypropylcellulose) (HPC)).

As for `O=C(CCCl)Nc1cccc(/C=C/C(=O)c2ccccc2NC(=O)CCCl)c1`, the T/C under setting [11] is 99 % of control; the T/C under setting [12] is 99 % of control; the T/C (dose: 240.0 mg/kg/injection, schedule: Q01DX005 (ip), vehicle: saline with Tween-80) was 93 % of control.

Consider `O=[N+]([O-])c1cccnc1Sc1ccnc(Sc2ncccc2[N+](=O)[O-])n1`, for which the T/C was 89 % of control under setting [13]; 97 % of control (dose: 50.0 mg/kg/injection, schedule: Q01DX009 (ip), vehicle: saline); 100 % of control and 96 % of control (dose: 100.0 mg/kg/injection, schedule: Q01DX009 (ip), vehicle: saline); 89 % of control under setting [14]; 89 % of control and 91 % of control (dose: 200.0 mg/kg/injection, schedule: Q01DX009 (ip), vehicle: saline).

With `Cc1ccc(NC(=O)Oc2cc(C)c(C)cc2Cl)c([N+](=O)[O-])c1`, the T/C is 107 % of control under setting [13]; 104 % of control (dose: 100.0 mg/kg/injection, schedule: Q01DX009 (ip), vehicle: saline with Tween-80); 112 % of control under setting [14].

`NCCn1[nH]c(=O)c2ncccc2c1=O`: the T/C runs as follows: under setting [11], 108 % of control; under setting [12], 105 % of control.

With `CC[N+](C)(CC)C/C(C)=C(/c1ccccc1S(=O)(=O)N(C)C)C(C)C[N+](C)(CC)CC` (centres undefined), the T/C was 102 % of control (dose: 12.5 mg/kg/injection, schedule: Q04DX003 (ip), vehicle: saline) and 103 % of control (dose: 25.0 mg/kg/injection, schedule: Q04DX003 (ip), vehicle: saline).

`O=C1NC(=O)C(=NC2C(=O)NC(=O)NC2=O)C(=O)N1`: the T/C is 96 % of control (dose: 30.0 mg/kg/injection, schedule: Q01DX005 (ip), vehicle: saline); 92 % of control and 95 % of control (dose: 60.0 mg/kg/injection, schedule: Q01DX005 (ip), vehicle: saline); 92 % of control (dose: 120.0 mg/kg/injection, schedule: Q01DX005 (ip), vehicle: saline); 86 % of control (dose: 240.0 mg/kg/injection, schedule: Q01DX005 (ip), vehicle: saline).

With `c1cc2cc(-c3cc4ccc(C5=NCCN5)cc4[nH]3)[nH]c2cc1C1=NCCN1`, the T/C by setting is: (dose: 100.0 mg/kg/injection, schedule: Q04DX003 (ip), vehicle: saline) 210 % of control; (dose: 200.0 mg/kg/injection, schedule: Q04DX003 (ip), vehicle: saline) 189 % of control; (dose: 400.0 mg/kg/injection, schedule: Q04DX003 (ip), vehicle: saline) 159 % of control.

`CN(c1ccccc1)c1cc(O)[nH]c(=O)c1`: the T/C is 96 % of control (dose: 12.5 mg/kg/injection, schedule: Q01DX009 (ip), vehicle: water); 111 % of control (dose: 25.0 mg/kg/injection, schedule: Q01DX009 (ip), vehicle: water); 99 % of control (dose: 50.0 mg/kg/injection, schedule: Q01DX009 (ip), vehicle: water); 100 % of control (dose: 100.0 mg/kg/injection, schedule: Q01DX009 (ip), vehicle: water); 97 % of control (dose: 200.0 mg/kg/injection, schedule: Q01DX009 (ip), vehicle: water).

Regarding `O=C1N(Cl)C(=O)C2(c3ccccc3-c3ccccc32)N1Cl`, the T/C under setting [5] was 100 % of control and the T/C under setting [6] is 108 % of control.

For the compound `CC1CC(C)(C)N=C(C(C)C)O1` (centres undefined), the T/C is, setting by setting: under setting [1], 109 % of control; under setting [2], 100 % of control; under setting [3], 100 % of control.

With `NN1C(=O)CS/C1=N\C(=S)N/N=C1/SCC(=O)N1N`, the T/C is 94 % of control (dose: 0.04 mg/kg/injection, schedule: Q01DX009 (ip), vehicle: saline); 97 % of control (dose: 0.09 mg/kg/injection, schedule: Q01DX009 (ip), vehicle: saline); 99 % of control (dose: 0.19 mg/kg/injection, schedule: Q01DX009 (ip), vehicle: saline); 98 % of control and 99 % of control (dose: 0.78 mg/kg/injection, schedule: Q01DX009 (ip), vehicle: saline).

In the case of `S=c1nc[nH]c2c1ncn2C1C=CCCC1` (centres undefined), the T/C by setting is: under setting [3], 90 % of control; (dose: 176.0 mg/kg/injection, schedule: Q01DX009 (ip), vehicle: saline with Tween-80) 100 % of control; under setting [4], 90 % of control; (dose: 264.0 mg/kg/injection, schedule: Q01DX009 (ip), vehicle: saline with Tween-80) 95 % of control; (dose: 400.0 mg/kg/injection, schedule: Q01DX009 (ip), vehicle: saline with Tween-80) 118 % of control; under setting [10], 90 % of control.

Source of the values: PubChem BioAssay AID330 (DTP/NCI, 2004).
